# Assays:
# pem1Δpem2Δ-pYES2.1-PvPMT = assay: yeast growth inhibition, pem1Δpem2Δ strain expressing PvPMT; assay type: cell-based; settings: 100 μM AQ
# Description: Figure 5 PMT-dependent inhibition of growth and PC biosynthesis by amodiaquine and NSC158011. (A–C): Growth curves of pem1Δpem2Δ-pYES2.1-PkPMT (A), pem1Δpem2Δ-pYES2.1-PvPMT (B), or Wild Type-pYES2.1- (C) strains grown in minimal medium containing 4% galactose and 1 mM ethanolamine in the presence or absence of 100 μM choline and 100 μM amodiaquine (AQ) as indicated. Growth curves of pem1Δpem2Δ-pYES2.1-PkPMT (D), pem1Δpem2Δ-pYES2.1-PvPMT (E), or Wild Type-pYES2.1- (F) strains maintained in minimal medium containing 4% galactose and 1 mM ethanolamine in the presence or absence of 100 μM choline and 10 μM NSC158011.
# pem1Δpem2Δ-pYES2.1, pem1Δpem2Δ-pYES2.1-PkPMT, pem1Δpem2Δ-pYES2.1-PvPMT, and pem1Δpem2Δ-pYES2.1-PfPMT yeast strains were pre-grown overnight in uracil dropout synthetic galactose (4%) (SG-URA) medium supplemented with 2 mM ethanolamine (Etn). Cells were diluted to an A600 = 0.001 in fresh SG-URA medium supplemented with 2 mM Etn in the presence or absence of 100 μM Choline (Cho). Cells were grown at 30°C and the growth was monitored by measuring the A600. […]
# PkPMT = biological target: T1, PkPMT (Plasmodium knowlesi, UniProt A0A384KJX3); assay: radiometric PMT transmethylation assay, inhibition of PkPMT; assay type: biochemical; settings: P-Etn 2 mM, SAM 1.5 mM; inhibitor 0, 100, 500, 1000 μM; read-out: IC50, inhibition of PkPMT activity
# T1 sequence (A0A384KJX3 1-264): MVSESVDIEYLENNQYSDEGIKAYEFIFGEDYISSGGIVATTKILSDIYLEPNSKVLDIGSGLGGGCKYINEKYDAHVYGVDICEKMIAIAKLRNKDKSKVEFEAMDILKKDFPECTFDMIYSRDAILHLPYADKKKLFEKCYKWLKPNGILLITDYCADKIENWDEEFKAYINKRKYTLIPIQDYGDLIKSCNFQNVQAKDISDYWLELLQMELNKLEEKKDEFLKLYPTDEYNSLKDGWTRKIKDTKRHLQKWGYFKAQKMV
# Description: Figure 3 Amodiaquine (AQ) and NSC158011 inhibit the activity of PvPMT and PkPMT. Enzyme inhibition assays with different concentrations of Amodiaquine (AQ), NSC158011 and Chloroquine (CQ) were carried out at constant P-Etn (2 mM) and SAM (1.5 mM) concentrations. The activity in the absence of any drug was taken as 100% and % enzyme activity was calculated in the presence of different drug concentrations (100, 500, 1000 μM). To determine the concentration that results in 50% inhibition of enzyme activity (IC50), the data were fitted to a non-linear regression analysis in the following equation Y = 100/(1 + ([X]/IC50)), where Y is % enzyme activity and X is drug concentration using Graph pad software.
# For enzyme kinetics studies recombinant histidine-tagged proteins were expressed using 1 mM IPTG for 4 h, purified using Ni-affinity purification and dialyzed. As expected, purified proteins migrated in SDS-PAGE gels at approximately 31 kDa. The purified proteins were stored in HEPES-KOH buffer (pH 7.4) at 4°C and were assayed within a month of purification. During this time, the integrity of the protein was assessed by SDS-PAGE. The kinetic properties of enzymes were assessed using radiometric assay wherein incorporation of radioactive labeled methyl donor (100nCi [methyl-^14C] SAM, Perkin elmer NEC363010UC) or (200nCi [methyl-^3H] SAM, Perkin Elmer NET155H250UC) was measured. […]
# PfPMT = test system: PfPMT; set-up: method as in PMID 20085640, PMID 24145416; settings: cited from earlier work
structure (smiles),measurement,setting,value
"CCN(CC)Cc1cc(Nc2ccnc3cc(Cl)ccc23)ccc1O [AQ, amodiaquine]",growth of pem1Δpem2Δ+PvPMT strain in media supplemented with choline,pem1Δpem2Δ-pYES2.1-PvPMT; 100 μM choline,no effect
same,growth of pem1Δpem2Δ+PvPMT strain,pem1Δpem2Δ-pYES2.1-PvPMT; ethanolamine medium without choline,significantly inhibited
same,IC50,PkPMT,398 µM
same,mode of inhibition of PfPMT,PfPMT,non-competitive inhibitors

# Source: paper PMC4357015, “Structure, Function and Inhibition of the Phosphoethanolamine Methyltransferases of the Human Malaria Parasites Plasmodium vivax and Plasmodium knowlesi” (Scientific Reports, 2015)
